The results in this text go back to patent publication US20080194485A1, “Detection and Use of Prolylcarboxypeptidase” (YALE UNIVERSITY, priority 2004, published 2008).

Residues, ends and D or L forms follow the SMILES beside them. *: point of attachment. Cbz = O=C(OCc1ccccc1)*

The subject of assay [1] is ob/ob mice. The assay is described as follows: IP injection of Z-PP, food intake in ob/ob mice. The assay is classed as in vivo, mouse. How it is done:
For this study 10 ob/ob mice were used. Mice were injected at the beginning of the dark phase intraperitoneally with 2 doses of 5 mg Z-PP every 12 hours and food intake was measured every 12 hours after the last injection. Control mice were injected at the same times and with the same volume of vehicle. Note that for Z-PP doses lower than 5 mg were ineffective in reducing food intake.

Assay [2] concerns wild type mice. The assay is described as follows: IP administration of α-MSH and MTII, food intake in wild type mice. The format is in vivo, mouse. The note with it: 200 nmol ip. How it is done:
Wild type and PRCP KO mice were used in this study. Animals were single caged and injected with saline at the beginning of the dark phase for 3 days. For each mouse, food intake was measured at 4, 12 and 24 hours after the injection. After 3 days, animals were divided in 6 groups: 1) wild type mice receiving 200 nmol MTII in saline; 2) wild type mice receiving 200 nmol α-MSH in saline; 3) wild type mice receiving saline; 4) PRCP KO mice receiving 200 nmol of MTII in saline; 5) PRCP KO mice receiving 200 nmol α-MSH; 6) PRCP KO mice receiving saline.

For assay [3], the target named is T1, rPRCP51 (recombinant PRCP) (Homo sapiens, UniProt P42785).
T1 construct: Human PRCP cDNA, lacking the first 391 base pairs of PRCP (Prcpnt391-1845); BiP secretion signal (from vector pMT/BiP/V5-His C) (N); His tag (from vector pMT/BiP/V5-His C) (C); made in house; host or cells: Schneider 2 (Drosophila S2) cells
T1 sequence (P42785 46-496): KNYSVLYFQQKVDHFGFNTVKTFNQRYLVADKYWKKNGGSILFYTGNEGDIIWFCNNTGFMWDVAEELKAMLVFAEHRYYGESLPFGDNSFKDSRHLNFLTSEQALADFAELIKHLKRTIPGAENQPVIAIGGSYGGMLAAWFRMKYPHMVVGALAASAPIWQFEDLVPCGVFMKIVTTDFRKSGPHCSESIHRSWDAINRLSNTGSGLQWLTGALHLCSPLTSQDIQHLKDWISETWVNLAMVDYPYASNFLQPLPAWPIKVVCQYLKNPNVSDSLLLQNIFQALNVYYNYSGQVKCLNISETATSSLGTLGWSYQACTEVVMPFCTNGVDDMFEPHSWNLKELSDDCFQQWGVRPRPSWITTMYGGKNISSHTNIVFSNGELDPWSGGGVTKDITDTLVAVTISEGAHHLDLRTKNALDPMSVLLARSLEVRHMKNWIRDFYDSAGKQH
The assay is described as follows: Substrate inhibition assay: rPRCP51-induced prekallikrein (PK) activation. The note with it: at 1 mM peptide. The format is biochemical. How it is done: Panel A: Increasing concentration of α-MSH, MSH1-12, or AgII (0.001-1 mM) were incubated with 8 nM of recombinant PRCP51 at 37° C. in microtiter plate cuvette wells with preabsorbed HK and containing 20 nM PK. The liberation of paranitroanilide (pNA) from the S2302 by the formed plasma kallikrein in the presence of the peptide was measured at 405 nm and the results are expressed as residual formed plasma kallikrein activity. The data represent the mean±SEM of three independent measurements.
pMT/BiP/V5-His C was employed as the basal plasmid in vector construction. […]
Samples containing 8 nM rPRCP51 in […] total volume were prepared in the absence or presence of increasing concentration of peptide α-MSH, MSH1-12 or AgII in HEPES carbonate buffer (137 mM NaCl, 3 mM KCl, 12 mM NaHCO3, 14.7 mM HEPES, 5.5 mM dextrose and 0.1% gelatin, pH 7.1 containing 10 mM CaCl2, and 1 mM MgCl2) in microtiter plate cuvette wells with previously absorbed HK at […] and with 20 nM PK at 37° C. The ability of purified rPRCP51 to activate PK bound to HK on plastic microtiter plates was determined in the absence or presence of increasing concentrations (0.001-1 mM) of the peptide (McCarthy et al., 2003; Shariat-Madar et al., 2002). […] The rate of hydrolysis was recorded at different concentrations of peptide and expressed as percent kallikrein activity remaining. […]

The test system of assay [4] is fasted rats. The assay is described as follows: ICV injection of α-MSH and α-MSH1-12, food intake in fasted rats. The format is in vivo, rat. Particulars: 2.5 μg ICV, 12 hour-fasted rats. Here is the method:
Eighteen male rats (200-250 gr) were used in this study. Animals with a third ventricle cannulation were purchased from Taconic Farms Inc. Rats were single caged and divided in 3 groups: animals injected with saline, animals injected with 2.5 μg of […]-MSH and animals injected with 2.5 μg of α-MSH1-12. All the rats were fasted overnight. The next morning, the animals were injected and a known amount of food was given and measured after 2 hours from re-feeding (Abbott et al., 2000).

For assay [5], the system named is POMC-GFP neurons. As to the kind of experiment: Whole cell patch clamp electrophysiology of POMC-GFP neurons in hypothalamic slices. The assay is classed as cell-based, mouse. The note with it: bath application, current clamp. Here is the method:
Coronal hypothalamic brain slices (˜300 μm) were prepared with a Vibratome from POMC-GFP transgenic mice. Slices were maintained at room temperature in artificial cerebrospinal fluid saturated with 95% O2 and 5% CO2. Slices were equilibrated in the recording chamber for 1 hr at 35° C. in ACSF saturated with 95% O2 and 5% CO2 prior to recordings. ACSF contains (mM): NaCl, 124; KCl, 3; CaCl2, 2; MgCl2, 2; NaH2PO4, 1.23; NaHCO3, 26; glucose, 10; pH 7.4 with NaOH. An upright fluorescence/infrared microscope with long working distance objectives (Olympus BX51WI) and fluorescence filter sets for GFP (Chroma Technology Corp) was used. Fluorescent POMC-GFP neurons were selected and a patch pipette (4-6 mega Ohm resistance) was advanced onto the surface of the neuron by a micromanipulator (Sutter 225). The pipette solution contains (in mM) K gluconate, 128; HEPES, 10; EGTA, 1; KCl, 10; MgCl2, 1; CaCl2, 0.3; (Mg)-ATP, 5; (Na)GTP, 0.3, PH.7.4. Whole cell patch clamp experiments were performed with a Multiclamp 700A amplifier (Axon Instruments, Inc). Whole cell current clamp was used to monitor the effect of α-MSH on membrane potential of recorded neurons held at resting membrane potential. […] Eletrophysiological data were analyzed with Axograph 4.9 (Axon Instruments), plotted with Igor Pro software (WaveMetrics, Lake Oswego, Oreg., USA) and presented as the mean±SEM. […]

The test system of assay [6] is rats. As to the kind of experiment: ICV injection of B-PP, food intake in rats. The format is in vivo, rat. How it is done:
Twelve male rats (200-250 gr) were used in this study. Animals with a third ventricle cannulation were purchased from Taconic Farms Inc. […] A known amount of food was given to the animals and weighted every 24 hours.

Assay [7] deals with ob/ob mice. As to the kind of experiment: IP injection of B-PP, food intake in ob/ob mice. Particulars: 400 μg systemically (ip). The format is in vivo, mouse. How it is done:
For this study 10 ob/ob mice were used. Mice were injected at the beginning of the dark phase intraperitoneally with 2 doses of […] of B-PP every 24 hours and food intake was measured before each injection and every 24 hours after the last administration. Control mice were injected at the same times and with same volume of vehicle.

As for `O=C[C@@H]1CCCN1C(=O)[C@@H]1CCCN1C(=O)OCc1ccccc1` [Z-PP, N-benzyloxycarbonyl-prolyl-prolinal] (Cbz-Pro-Pro-aldehyde), the “food intake compared to vehicle controls” value in assay [1] (5 mg ip, after 24 hours from the last injection) is listed as “no difference”. In addition, the “effect on food intake” value in assay [1] (5 mg ip, ob/ob mice) was “suppress food intake, but with lower efficacy than that of B-PP”. The “effect in reducing food intake” value in assay [1] (doses lower than 5 mg ip, ob/ob mice) is “ineffective”.
For the compound “Ac-Nle^4-c[Asp^5, D-Phe^7, Lys^10] α-MSH-(4-10)-NH2 [MTII]”, the “food intake compared to 100% controls” value in assay [2] is 35.5%.
In the case of “Ac-STSMEHFRWGKP-COOH (Ac-STSMEHFRWGKP-OH) [α-MSH1-12, putative product of PRCP hydrolysis of α-MSH, lacks the C-terminal Val]”, the “inhibition of rPRCP51 activity” value in assay [3] is listed as “about 20%”. The “effect on food intake compared to saline controls” value in assay [4] is on record as “did not significantly affect food intake”. In assay [4] (2 hours from re-feeding), this compound returned a food intake of 8.89 ± 0.90 g. The “hyperpolarization of POMC membrane potential” value in assay [5] is “undetectable”.
Consider “t-butyl carbamate (BOC)-prolyl prolinal [B-PP]”, for which the “food intake, percent” value in assay [6] (after 24 hours from the administration, controls 94.91%) came out at 36.7%. In addition, the “food intake, percent” value in assay [6] (after 48 hours from the administration, controls 97.67%) is reported as 89.24%. For the same compound, in assay [7], the “effect on body weight gain” value is reported as “suppressed” and the “effect on food intake” value is reported as “suppressed”.
